target: Endothelin-converting enzyme 1 (Sus scrofa); assay: Compound was evaluated for inhibition of Endothelin-converting enzyme 1 partially purified from porcine primary aortic endothelial cells

SMILES	IC50 [µM]
O=C(Cc1ccc(-c2ccccc2)cc1)N[C@@H](CS)Cc1cccnc1 [2-Biphenyl-4-yl-N-((R)-1-mercaptomethyl-2-pyridin-3-yl-ethyl)-acetamide]	5.2
O=C(CCC(C(=O)O)c1ccccc1)N[C@@H](CS)Cc1c[nH]c2ccccc12 (stereo partly drawn) [4-[(R)-2-(1H-Indol-3-yl)-1-mercaptomethyl-ethylcarbamoyl]-2-phenyl-butyric acid]	5.4
O=C(N[C@@H](CS)Cc1c[nH]c2ccccc12)c1cccs1 [Thiophene-2-carboxylic acid [(R)-2-(1H-indol-3-yl)-1-mercaptomethyl-ethyl]-amide]	5.2
O=C(Cc1ccc(OCc2cccnc2)cc1)N[C@@H](CS)Cc1c[nH]c2ccccc12 [N-[(R)-2-(1H-Indol-3-yl)-1-mercaptomethyl-ethyl]-2-[4-(pyridin-3-ylmethoxy)-phenyl]-acetamide]	7.7
O=C(N[C@@H](CS)Cc1c[nH]c2ccccc12)C1CCN(C(=O)Cc2ccc(-c3ccccc3)cc2)CC1 [1-(2-Biphenyl-4-yl-acetyl)-piperidine-4-carboxylic acid [(R)-2-(1H-indol-3-yl)-1-mercaptomethyl-ethyl]-amide]	6.5

From BindingDB's records for doi:10.1016/0960-894X(96)00091-1 (1996)
